Data reported in article PMC5855685 (International Journal of Molecular Sciences, 2018).
Values after ≈ are worked out from the molar mass of the structure shown. Read-outs that look alike come from different tables or passages of the source.

What was measured:
E. coli (Gram−) = test: Antimicrobial activity, MIC on Müeller Hinton Agar; assay type: cell-based, Escherichia coli; details: for MIC: Escherichia coli, read-out: MIC (minimal inhibitory concentration)
Description: (§1) The antimicrobial activity of studied compounds was tested against Escherichia coli, Bacillus subtilis, Staphylococcus epidermidis, Streptococcus pyogenes and antifungal activities against Candida sp. The microorganisms used in the experiment were obtained from the American Type Culture Collection-ATCC. Antimicrobial activity was measured as a minimal inhibitory concentration (MIC) with […] Hinton Agar (MHA). Serial two-fold dilutions of chemicals, ranging from 5000, 2500, 1250, 625 to 312, μg/mL were prepared. After the inoculation of microorganisms on MHA plates with certain tested chemical concentrations, the plates were incubated at 37 °C for bacteria and at 30 °C for Candida sp. for 24 and 48 h, respectively. Plates containing sterile water were used as controls. Minimum three repetitions were run for each assay. Ampicillin and kanamycin were used as a reference antibiotics.

Bacillus sp. (Gram+) = test: Antimicrobial activity, MIC on Müeller Hinton Agar; assay type: cell-based, Bacillus subtilis; details: for MIC: read-out: MIC (minimal inhibitory concentration)
Description: as §1

[1] = system: Staphylococcus Epidermidis (Gram+); test: Antimicrobial activity, MIC on Müeller Hinton Agar; assay type: cell-based; details: for MIC: read-out: MIC (minimal inhibitory concentration)
Description: as §1

[2] = system: Streptococcus Pyogenes (Gram+); test: Antimicrobial activity, MIC on Müeller Hinton Agar; assay type: cell-based; details: for MIC: read-out: MIC (minimal inhibitory concentration)
Description: as §1

Candida sp. = test: Antifungal activity, MIC on Müeller Hinton Agar; assay type: cell-based; details: for MIC: Candida, read-out: MIC (minimal inhibitory concentration)
Description: as §1

[3] = system: E. coli, Bacillus sp., Staphylococcus sp., Streptococcus pyogenes; test: Antibacterial activity, MIC as summarised in the abstract; assay type: cell-based; details: summary over tested bacteria (abstract)
Description: as §1

Hepatitis B virus = system: Hepatitis B virus; parameters: method as in PMID 19463857; details: cited from earlier work
[4] = system: Stenotrophomonas maltophilia, Bacillus careus, Enterococcus faecalis, Bacillus subtilis, Streptococcus pneumoniae; parameters: method as in PMID 23509719, PMID 21483731, PMID 22417510; details: range over listed bacteria; cited from earlier work
[5] = system: multi-drug resistant Staphylococcus aureus; parameters: method as in PMID 26528244; details: via inhibition of the activity of sortase A; cited from earlier work
[6] = DPPH radical scavenging assay; details: methanolic solution, 40 μM DPPH, 1 h, 23 °C, 516 nm
Description: Particular volumes of chlorogenic acid and chlorogenate solutions were added into the test tubes and diluted with methanol to obtain a series of solutions at the concentrations 10–0.1 μM (final volume 1 mL). Then, 2 mL of DPPH was added to each tube, vortexed and incubated in the darkness for 1 h at 23 °C. […] The absorbance of the mixture was measured at 516 nm against methanol as the blank using Agilent Carry 5000 spectrophotometer. The control sample—2 mL of DPPH solution and 1 mL of methanol. […] Then, the concentration of the tested substances was plotted against the % inhibition and the IC50 values were read from the scavenging curves. […] The IC50 parameter was also obtained for butylated hydroxyanisol (BHA), butylated hydroxytoluene (BHT) and L-ascorbic acid and compared with those ones calculated for studied compounds.

[7] = FRAP (ferric reducing antioxidant power) assay; details: Fe2+ equivalents
Description: Ferric reducing antioxidant activity was determined in FRAP assay. In order to prepare the FRAP reagent the following reagents: 0.3 M acetate buffer (pH 3.6), 10 mM TPTZ (in 40 mM HCl) and 20 mM FeCl3·6H2O (in water) were mixed in a volumetric ratio 10:1:1 directly before analyses. Then, the FRAP reagent (3 mL) was mixed with the tested substance (0.4 mL; final concentrations C = 2.5 and 5.0 μM). The absorbance was measured at 594 nm against blank (3 mL of FRAP and 0.4 mL of methanol) using an Agilent Carry 5000 spectrophotometer (CA, USA). Antioxidant activity was expressed as Fe^2+ equivalents [μM] using the calibration curve prepared over the range of 1000–20 μM concentration of FeSO4.

[8] = Pro-oxidant activity as rate of oxidation of trolox (H2O2 / horseradish peroxide); details: 100 μM trolox, 50 μM H2O2, pH 7, 25 °C, 272 nm
Description: Chlorogenic acid and chlorogenates were also tested for their pro-oxidative effect on trolox oxidation. The radicals of chlorogenic acid and chlorogenates are produced in their reaction with H2O2 catalysed by horse radish peroxide. Then the phenoxyl radicals react with trolox which undergoes oxidation to trolox radicals and then trolox quinones. Whereas the phenoxyl radical are transformed to phenolic compounds. The maximum absorption for trolox quinone is 272 nm. This is a general procedure to study the pro-oxidant activity of phenolic compounds [54].
The pro-oxidant activity of the tested compounds were measured as the rate of oxidation of trolox according to the procedure described by Zeraik et al.. 100 μM trolox, 50 μM H2O2, 0.01 μM horseradish peroxide in phosphate buffer (pH = 7) and tested substances with a concentration from 0.05–0.35 μM were incubated at 25 °C. The measurement were conducted at 272 nm using an Agilent Carry 5000 spectrophotometer.

| SMILES | MIC (minimal inhibitory concentration) (Candida sp.; MHA plates, 30 °C, 48 h) | EC50 [6] [µM] | FRAP Values C Fe2+ ([7]; Ccompound 5 µM) [µM] | MIC (minimal inhibitory concentration) (E. coli (Gram−); MHA plates, 37 °C, 24 h) [mM] | MIC (minimal inhibitory concentration) (Bacillus sp. (Gram+); MHA plates, 37 °C, 24 h) | MIC (minimal inhibitory concentration) ([1]; MHA plates, 37 °C, 24 h) | MIC (minimal inhibitory concentration) ([2]; MHA plates, 37 °C, 24 h) | FRAP Values C Fe2+ ([7]; Ccompound 2.5 µM) [µM] | also measured |
| --- | --- | --- | --- | --- | --- | --- | --- | --- | --- |
| O=C(/C=C/c1ccc(O)c(O)c1)O[C@@H]1C[C@](O)(C(=O)O)C[C@@H](O)[C@H]1O [5-CQA, 5-O-caffeoylquinic acid, reference compound] | > 14.11 mM | – | – | – | – | – | – | – | MIC (E. coli (Gram−); MHA plates, 37 °C, 24 h): 7.06 mM; MIC (E. coli (Gram−); value in brackets): 2500 µg/mL; MIC (Bacillus sp. (Gram+); MHA plates, 37 °C, 24 h): > 7060 µM; MIC (Bacillus sp. (Gram+); value in brackets): > 2500 µg/mL; MIC ([1]; MHA plates, 37 °C, 24 h): > 7060 µM; MIC ([1]; value in brackets): > 2500 µg/mL; MIC ([2]; MHA plates, 37 °C, 24 h): > 7060 µM; MIC ([2]; value in brackets): > 2500 µg/mL; MIC (Candida sp.; 48 h, MHA plates, 30 °C, 48 h): 14.1 mM; MIC (Candida sp.; value in brackets): > 5000 µg/mL; MIC [3]: 7.06 mM (≈ 2500 µg/mL); IC50 against Hepatitis B virus (Hepatitis B virus): 0.4 µg/mL (≈ 1.13 µM); MIC [4]: 8 to 64 µg/mL; IC50 [5]: 33.86 ± 5.55 µg/mL (≈ 95.6 µM) |
| CC1(C)S[C@@H]2[C@H](NC(=O)[C@H](N)c3ccccc3)C(=O)N2[C@H]1C(=O)O [Ampicillin, reference compound] | – | – | – | – | – | – | – | – | MIC (E. coli (Gram−); MHA plates, 37 °C, 24 h): 0.43 mM; MIC (Bacillus sp. (Gram+); MHA plates, 37 °C, 24 h): 570 µM; MIC ([1]; MHA plates, 37 °C, 24 h): 570 µM; MIC ([2]; MHA plates, 37 °C, 24 h): 570 µM; MIC (Candida sp.; 48 h, MHA plates, 30 °C, 48 h): 0.57 mM |
| Cc1cc(C(C)(C)C)c(O)c(C(C)(C)C)c1 [BHT, butylated hydroxytoluene, reference compound] | – | 52.8 ± 2.83 | 69.66 ± 5.54 | – | – | – | – | – | – |
| O=C(/C=C/c1ccc(O)c(O)c1)O[C@@H]1C[C@](O)(C(=O)[O-])C[C@@H](O)[C@H]1O.[Cs+] [Cs 5-CQA, caesium chlorogenate] | ˃9.58 mM | 5.89 ± 1.57 | – | 4.79 | ˃4.79 mM | ˃4.79 mM | ˃4.79 mM | 80.47 ± 5.68 | – |
| O=C(/C=C/c1ccc(O)c(O)c1)O[C@@H]1C[C@](O)(C(=O)[O-])C[C@@H](O)[C@H]1O.[K+] [K 5-CQA, potassium chlorogenate] | 5.96 mM | 5.32 ± 0.49 | 132.00 ± 6.07 | 5.96 | 5.96 mM | 2.98 mM | ˃5.96 mM | 99.89 ± 7.05 | time after which the oxidation of trolox finished ([8]; compound 0.25 μM): 40 min; time after which the oxidation of trolox finished ([8]; compound 0.35 μM): 20 min |
| NC[C@H]1O[C@H](O[C@H]2[C@H](O)[C@@H](O[C@H]3O[C@H](CO)[C@@H](O)[C@H](N)[C@H]3O)[C@H](N)C[C@@H]2N)[C@H](O)[C@@H](O)[C@@H]1O [Kanamycin, reference compound] | 0.41 mM (≈ 199 µg/mL) | – | – | 0.21 (≈ 102 µg/mL) | 0.21 mM (≈ 102 µg/mL) | 0.21 mM (≈ 102 µg/mL) | 0.21 mM (≈ 102 µg/mL) | – | – |
| O=C1O[C@H]([C@@H](O)CO)C(O)=C1O [L-ascorbic acid, reference compound] | – | 10.9 ± 0.53 | 81.70 ± 4.23 | – | – | – | – | – | – |
| O=C(/C=C/c1ccc(O)c(O)c1)O[C@@H]1C[C@](O)(C(=O)[O-])C[C@@H](O)[C@H]1O.[Li+] [Li 5-CQA, lithium chlorogenate] | ˃12.91 mM | 5.28 ± 0.375 | – | 6.46 | ˃6.46 mM | ˃6.46 mM | ˃6.46 mM | 78.93 ± 4.23 | time after which the oxidation of trolox finished ([8]; compound 0.35 μM): 20 min |
| O=C(/C=C/c1ccc(O)c(O)c1)O[C@@H]1C[C@](O)(C(=O)[O-])C[C@@H](O)[C@H]1O.[Na+] [Na 5-CQA, sodium chlorogenate] | ˃12.40 mM | 4.5 ± 0.36 | 141.13 ± 5.78 | 6.20 | ˃6.20 mM | ˃6.20 mM | ˃6.20 mM | 103.08 ± 2.79 | time after which the oxidation of trolox finished ([8]; compound 0.35 μM): 20 min |
| O=C(/C=C/c1ccc(O)c(O)c1)O[C@@H]1C[C@](O)(C(=O)[O-])C[C@@H](O)[C@H]1O.[Rb+] [Rb 5-CQA, rubidium chlorogenate] | 5.27 mM | 5.4 ± 0.68 | – | 2.63 | 5.27 mM | 5.27 mM | 2.63 mM | 86.70 ± 2.86 | time after which the oxidation of trolox finished ([8]; compound 0.25 μM): 40 min |
| Cc1c(C)c2c(c(C)c1O)CCC(C)(C(=O)O)O2 (stereo not shown) [Trolox, reference compound] | – | 8.25 ± 0.75 | 70.85 ± 3.57 | – | – | – | – | – | – |
